Values after ≈ are worked out from the molar mass of the structure shown.
How the values were obtained:
[1] = test system: HT-29; assay: Antiproliferative activity against human HT-29 cells assessed as reduction in cell viability incubated for 24 hrs by MTT assay; type: functional, cell-based; settings: HT-29, 24 h
[2] = test system: FaDu; assay: Antiproliferative activity against human FaDu cells assessed as inhibition of cell growth incubated for 72 hrs by 3H-thymidine incorporation assay; type: functional, cell-based
[3] = test system: A-375; assay: Cytotoxicity against human A-375 cells assessed as reduction in cell growth measured after 24 hrs by MTT assay; type: functional, cell-based; settings: A-375, 24 h
[4] = test system: A2780; assay: Antiproliferative activity against human A2780 cells assessed as reduction in cell growth incubated for 72 hrs by MTT assay; type: functional, cell-based; settings: A2780, 72 h
[5] = target: Coagulation factor X (Homo sapiens, UniProt P00742); assay: Inhibition of human factor Xa
[6] = test system: HCT-116; assay: Antiproliferative activity against human HCT-116 cells assessed reduction in cell growth incubated for 24 hrs by MTT assay; type: functional, cell-based; settings: HCT-116, 24 h
[7] = Cytotoxicity against African green monkey Vero cells incubated for 48 hrs by SRB colorimetric assay; type: toxicity, cell-based, Chlorocebus sabaeus
[8] = test system: PC-3; assay: Antiproliferative activity against human PC-3 cells assessed as reduction in cell viability incubated for 24 hrs by MTT assay; type: functional, cell-based; settings: PC-3, 24 h
[9] = test system: HeLa; assay: Antiproliferative activity against human HeLa cells assessed as reduction in cell viability incubated for 24 hrs by MTT assay; type: functional, cell-based
[10] = target: Acetylcholinesterase (Homo sapiens, UniProt P22303); assay: Inhibition of AChE (unknown origin)
[11] = target: Cholinesterase (Homo sapiens, UniProt P06276); assay: Inhibition of BchE (unknown origin)
[12] = test system: NCI-H460; assay: Cytotoxicity against human NCI-H460 cells assessed as reduction in cell growth incubated for 72 hrs by CCK-8 assay; type: functional, cell-based; settings: NCI-H460, 72 h
[13] = test system: HEY; assay: Cytotoxicity against human HEY cells assessed as reduction in cell growth incubated for 72 hrs by CCK-8 assay; type: functional, cell-based
[14] = test system: ES-2; assay: Cytotoxicity against human ES2 cells assessed as reduction in cell growth incubated for 72 hrs by CCK-8 assay; type: functional, cell-based; settings: ES-2, 72 h
[15] = test system: NCI-H1299; assay: Cytotoxicity against human NCI-H1299 cells assessed as reduction in cell growth incubated for 72 hrs by CCK-8 assay; type: functional, cell-based; settings: NCI-H1299, 72 h
[16] = test system: A549; assay: Cytotoxicity against human A549 cells assessed as reduction in cell growth incubated for 72 hrs by CCK-8 assay; type: functional, cell-based; settings: A549, 72 h
[17] = test system: SK-OV-3; assay: Cytotoxicity against human SK-OV-3 cells assessed as reduction in cell growth incubated for 72 hrs by CCK-8 assay; type: functional, cell-based; settings: SK-OV-3, 72 h
[18] = test system: Caco-2; assay: Cytotoxicity against human Caco-2 cells assessed as reduction in cell growth incubated for 72 hrs by CCK-8 assay; type: functional, cell-based; settings: Caco-2, 72 h
[19] = test system: OVCAR-5; assay: Cytotoxicity against human OVCAR-5 cells assessed as reduction in cell growth incubated for 72 hrs by CCK-8 assay; type: functional, cell-based; settings: OVCAR-5, 72 h
[20] = test system: SW626; assay: Cytotoxicity against human SW626 cells assessed as reduction in cell growth incubated for 72 hrs by CCK-8 assay; type: functional, cell-based; settings: SW626, 72 h
[21] = Antiproliferative activity against mouse […] cells assessed as inhibition of cell growth incubated for 48 hrs by MTT assay; type: functional, cell-based; settings: time 48 hrs, read-out: ED50 (the source's name)
[22] = test system: Rhizoctonia solani; assay: Antifungal activity Rhizoctonia solani assessed as fungal growth inhibition measured after 4 to 8 days; type: functional, organism-based
[23] = Antiproliferative activity against human THLE-2 cells assessed as reduction in cell viability incubated for 48 hrs by CCK-8 assay; type: toxicity, cell-based
[24] = test system: PC-3; assay: Antiproliferative activity against human PC-3 cells assessed as reduction in cell viability incubated for 48 hrs by CCK-8 assay; type: functional, cell-based; settings: PC-3, 48 h
[25] = Selectivity index, ratio of IC50 for antiproliferative activity against human THLE-2 cells to IC50 for antiproliferative activity against human PC-3 cells
[26] = test system: SAOS-2; assay: Cytotoxicity against human SAOS-2 cells assessed as reduction in cell viability incubated for 48 hrs by MTT assay; type: functional, cell-based; settings: SAOS-2, 48 h
[27] = test system: U2OS; assay: Cytotoxicity against human U2OS cells assessed as reduction in cell viability incubated for 48 hrs by MTT assay; type: functional, cell-based
[28] = test system: MG-63; assay: Cytotoxicity against human MG-63 cells assessed as reduction in cell viability incubated for 48 hrs by MTT assay; type: functional, cell-based; settings: MG-63, 48 h
[29] = target: Histone deacetylase 3 (Homo sapiens, UniProt O15379); assay: Inhibition of human recombinant HDAC3
[30] = target: Histone deacetylase 1 (Homo sapiens, UniProt Q13547); assay: Inhibition of human recombinant HDAC1
[31] = target: Histone deacetylase 2 (Homo sapiens, UniProt Q92769); assay: Inhibition of human recombinant HDAC2
[32] = target: Telomerase reverse transcriptase (Homo sapiens, UniProt O14746); assay: Inhibition of telomerase (unknown origin)
[33] = test system: HepG2; assay: Cytotoxicity against human HepG2 cells assessed as reduction in cell viability incubated for 72 hrs by MTT assay; type: functional, cell-based; settings: HepG2, 72 h

Chain of Cholinesterase (P06276 whole entry): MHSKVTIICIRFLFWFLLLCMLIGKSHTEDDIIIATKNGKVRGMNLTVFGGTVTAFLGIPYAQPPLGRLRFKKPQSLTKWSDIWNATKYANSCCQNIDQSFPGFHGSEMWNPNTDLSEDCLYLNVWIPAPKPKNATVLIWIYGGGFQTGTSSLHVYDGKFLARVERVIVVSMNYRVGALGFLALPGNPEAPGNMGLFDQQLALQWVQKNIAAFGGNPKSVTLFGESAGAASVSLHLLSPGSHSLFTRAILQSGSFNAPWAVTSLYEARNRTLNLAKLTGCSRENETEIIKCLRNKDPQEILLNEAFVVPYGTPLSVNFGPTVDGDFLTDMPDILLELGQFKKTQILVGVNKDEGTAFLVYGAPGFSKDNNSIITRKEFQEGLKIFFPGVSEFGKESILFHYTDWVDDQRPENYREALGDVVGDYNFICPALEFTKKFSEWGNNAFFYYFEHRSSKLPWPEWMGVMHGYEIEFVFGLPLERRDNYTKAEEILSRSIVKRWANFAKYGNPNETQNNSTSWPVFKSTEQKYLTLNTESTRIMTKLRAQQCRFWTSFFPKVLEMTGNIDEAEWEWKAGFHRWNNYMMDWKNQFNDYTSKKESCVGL
Chain of Acetylcholinesterase (P22303 whole entry): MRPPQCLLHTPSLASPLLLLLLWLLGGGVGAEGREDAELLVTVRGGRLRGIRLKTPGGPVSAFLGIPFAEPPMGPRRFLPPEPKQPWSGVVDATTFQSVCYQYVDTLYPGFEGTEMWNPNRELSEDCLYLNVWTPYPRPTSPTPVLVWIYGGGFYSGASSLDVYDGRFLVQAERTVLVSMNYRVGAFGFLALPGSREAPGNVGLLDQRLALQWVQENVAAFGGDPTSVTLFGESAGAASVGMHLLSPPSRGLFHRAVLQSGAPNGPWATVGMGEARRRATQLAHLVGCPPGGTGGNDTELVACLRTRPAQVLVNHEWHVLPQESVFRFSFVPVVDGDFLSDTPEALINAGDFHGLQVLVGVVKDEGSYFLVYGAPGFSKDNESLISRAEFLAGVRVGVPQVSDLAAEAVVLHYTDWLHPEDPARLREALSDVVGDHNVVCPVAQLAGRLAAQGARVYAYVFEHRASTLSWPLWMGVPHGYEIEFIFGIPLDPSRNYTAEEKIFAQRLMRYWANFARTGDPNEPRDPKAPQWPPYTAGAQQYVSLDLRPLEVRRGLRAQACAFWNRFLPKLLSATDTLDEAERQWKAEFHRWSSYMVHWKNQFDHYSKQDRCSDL
Chain of Histone deacetylase 3 (O15379 whole entry): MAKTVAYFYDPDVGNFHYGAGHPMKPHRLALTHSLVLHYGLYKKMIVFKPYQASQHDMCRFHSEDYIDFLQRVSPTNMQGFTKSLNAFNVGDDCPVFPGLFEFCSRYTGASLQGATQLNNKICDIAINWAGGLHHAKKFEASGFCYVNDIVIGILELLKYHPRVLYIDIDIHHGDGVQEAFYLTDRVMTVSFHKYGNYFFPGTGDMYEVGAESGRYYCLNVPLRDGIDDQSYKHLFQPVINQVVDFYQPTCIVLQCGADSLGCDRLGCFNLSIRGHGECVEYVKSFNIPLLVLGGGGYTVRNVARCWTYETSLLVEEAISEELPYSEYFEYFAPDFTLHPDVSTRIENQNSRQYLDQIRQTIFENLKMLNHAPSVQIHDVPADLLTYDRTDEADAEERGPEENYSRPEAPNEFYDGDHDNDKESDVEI
Chain of Histone deacetylase 1 (Q13547 whole entry): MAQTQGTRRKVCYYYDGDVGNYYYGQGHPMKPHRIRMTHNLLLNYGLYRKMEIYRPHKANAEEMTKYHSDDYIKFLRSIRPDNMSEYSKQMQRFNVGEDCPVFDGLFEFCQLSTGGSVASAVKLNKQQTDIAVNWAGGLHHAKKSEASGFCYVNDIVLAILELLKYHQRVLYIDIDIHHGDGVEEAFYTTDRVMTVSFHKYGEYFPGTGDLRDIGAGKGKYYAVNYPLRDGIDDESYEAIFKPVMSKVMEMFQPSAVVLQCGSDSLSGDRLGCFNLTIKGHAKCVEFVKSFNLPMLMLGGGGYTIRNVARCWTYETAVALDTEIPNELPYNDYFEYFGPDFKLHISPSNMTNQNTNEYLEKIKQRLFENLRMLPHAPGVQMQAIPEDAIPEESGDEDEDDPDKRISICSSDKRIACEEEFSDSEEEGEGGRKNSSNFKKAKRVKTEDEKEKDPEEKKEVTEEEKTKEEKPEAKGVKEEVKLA
Chain of Histone deacetylase 2 (Q92769 whole entry): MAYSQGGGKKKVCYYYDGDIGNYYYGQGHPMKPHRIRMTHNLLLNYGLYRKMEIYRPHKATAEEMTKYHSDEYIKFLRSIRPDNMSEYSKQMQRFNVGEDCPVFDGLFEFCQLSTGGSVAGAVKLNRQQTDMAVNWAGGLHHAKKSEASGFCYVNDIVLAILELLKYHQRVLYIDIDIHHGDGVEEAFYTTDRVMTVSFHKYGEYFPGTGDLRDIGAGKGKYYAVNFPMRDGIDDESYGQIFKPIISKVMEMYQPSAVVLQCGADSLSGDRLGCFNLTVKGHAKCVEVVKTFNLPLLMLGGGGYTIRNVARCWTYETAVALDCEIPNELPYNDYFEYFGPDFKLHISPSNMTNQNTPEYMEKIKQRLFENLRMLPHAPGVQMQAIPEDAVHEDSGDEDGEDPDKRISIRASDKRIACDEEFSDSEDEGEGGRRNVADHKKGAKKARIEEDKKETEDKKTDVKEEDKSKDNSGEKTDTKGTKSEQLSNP
Chain of Telomerase reverse transcriptase (O14746 whole entry): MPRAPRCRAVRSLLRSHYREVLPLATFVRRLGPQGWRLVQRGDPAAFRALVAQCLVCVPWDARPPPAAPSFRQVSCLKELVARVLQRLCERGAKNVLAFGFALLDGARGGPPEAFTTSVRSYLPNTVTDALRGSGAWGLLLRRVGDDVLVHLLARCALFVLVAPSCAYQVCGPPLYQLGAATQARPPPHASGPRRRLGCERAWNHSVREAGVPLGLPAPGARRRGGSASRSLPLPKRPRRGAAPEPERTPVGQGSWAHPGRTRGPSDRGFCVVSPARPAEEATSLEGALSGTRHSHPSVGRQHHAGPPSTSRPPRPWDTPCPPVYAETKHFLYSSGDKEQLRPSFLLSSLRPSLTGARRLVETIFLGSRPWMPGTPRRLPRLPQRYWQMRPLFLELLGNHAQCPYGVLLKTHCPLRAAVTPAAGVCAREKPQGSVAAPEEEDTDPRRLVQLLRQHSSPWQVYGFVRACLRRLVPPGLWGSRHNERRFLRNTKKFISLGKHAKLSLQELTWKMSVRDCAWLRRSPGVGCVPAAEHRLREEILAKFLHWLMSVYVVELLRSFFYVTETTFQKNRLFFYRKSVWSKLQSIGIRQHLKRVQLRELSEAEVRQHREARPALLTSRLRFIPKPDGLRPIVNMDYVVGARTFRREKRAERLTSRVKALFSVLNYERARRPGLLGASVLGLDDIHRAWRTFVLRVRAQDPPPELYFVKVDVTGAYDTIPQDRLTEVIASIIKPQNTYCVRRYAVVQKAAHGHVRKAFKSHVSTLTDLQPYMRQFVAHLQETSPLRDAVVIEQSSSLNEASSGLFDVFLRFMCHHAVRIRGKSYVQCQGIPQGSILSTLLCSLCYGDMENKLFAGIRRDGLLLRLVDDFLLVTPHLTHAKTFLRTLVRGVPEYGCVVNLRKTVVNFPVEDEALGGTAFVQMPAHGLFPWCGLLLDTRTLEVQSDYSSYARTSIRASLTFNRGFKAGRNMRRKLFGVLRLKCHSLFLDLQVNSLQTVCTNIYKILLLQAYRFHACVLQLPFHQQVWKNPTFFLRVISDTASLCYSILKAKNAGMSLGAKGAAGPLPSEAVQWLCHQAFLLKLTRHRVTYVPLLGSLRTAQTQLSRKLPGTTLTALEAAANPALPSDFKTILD
Chain of Coagulation factor X (P00742 41-179 limits assumed): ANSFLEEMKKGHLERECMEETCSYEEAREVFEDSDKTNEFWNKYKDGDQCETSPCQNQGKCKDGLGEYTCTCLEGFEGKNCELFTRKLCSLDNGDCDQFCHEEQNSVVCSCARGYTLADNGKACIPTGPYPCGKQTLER
Chain of Coagulation factor X (P00742 235-488 limits assumed): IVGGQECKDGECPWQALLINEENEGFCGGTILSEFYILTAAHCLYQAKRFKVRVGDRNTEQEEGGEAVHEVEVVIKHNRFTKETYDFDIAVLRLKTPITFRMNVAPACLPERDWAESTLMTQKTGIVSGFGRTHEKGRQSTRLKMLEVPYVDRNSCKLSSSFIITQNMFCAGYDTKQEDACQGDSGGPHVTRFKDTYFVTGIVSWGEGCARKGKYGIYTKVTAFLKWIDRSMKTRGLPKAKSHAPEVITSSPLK

CC1c2nccnc2C[C@]2(C)[C@H]3C(=O)C=C4[C@@H]5[C@@H](C)[C@H](C)CC[C@]5(C)CC[C@@]4(C)[C@]3(C)CC[C@@H]12 (some centres undefined)
IC50 [1]: 22700 nM
IC50 [2]: > 30000 nM
IC50 [3]: 12000 nM
IC50 [4]: 15700 nM

O=C1CN(S(=O)(=O)c2ccc3cc(Cl)ccc3c2)CC2(CO)NC3(CCN(c4ccncc4)CC3)CN12 (centres undefined)
IC50 [5]: 0.61 nM

C[C@@H]1[C@]2(O[C@H]3C=C4[C@@H]5CC[C@H]6Cc7nc8c(nc7C[C@]6(C)[C@H]5C[C@@H](O)[C@]4(C)[C@]31O)C[C@@H]1CC[C@H]3C4=CC5O[C@@]6(CCC(C)(C)O6)[C@@H](C)[C@@H]5[C@@]4(C)[C@H](O)C[C@@H]3[C@@]1(C)C8)O[C@](C)(COC(=O)CNC(=O)Cc1cc(=O)oc3cc(N(C)C)ccc13)C[C@H]2O (some centres undefined)
IC50 [6]: 84 nM

COC(=O)c1sc2nccnc2c1Nc1ccccc1OC
IC50 at 48 h [7]: 21300 nM

CN(CCCN(C)CCN1C(=O)c2cccc3c(N)c(N)cc(c23)C1=O)CCN1C(=O)c2cccc3c(N)c(N)cc(c23)C1=O
IC50 [8]: 180 nM
IC50 [1]: 60 nM
IC50 [9]: 90 nM

Fc1cccc(-c2cnc3cccnc3n2)c1
IC50 [10]: 800 nM
IC50 [11]: 583 nM

CC(C)N1C[C@H]2C[C@@H]1CN2c1ccc(Nc2nc(-c3ccc4cn[nH]c4c3)cn3ccnc23)cc1
IC50 [12]: 1480 nM
IC50 [13]: 1010 nM
IC50 [14]: 1960 nM
IC50 [15]: 720 nM
IC50 [16]: 830 nM
IC50 [17]: 760 nM
IC50 [18]: 7390 nM
IC50 [19]: 1530 nM
IC50 [20]: 9170 nM

C[C@@H]1[C@@]2(CC[C@](C)(O)CO2)O[C@H]2C=C3[C@@H]4[C@@H](O)C[C@H]5Cc6nc7c(nc6C[C@]5(C)[C@H]4C[C@@H](O)[C@]3(C)[C@]21O)C[C@@H]1CC[C@@H]2[C@H](CC(=O)[C@]23C[C@@H]2O[C@]4(CCC(C)(C)O4)[C@@H](C)[C@@H]2[C@]3(C)O)[C@@]1(C)C7 [RITTERAZINE D]
EC50 [21]: 0.17 nM

O=C(OCc1cnccn1)c1ccccc1
EC50 [22]: 0.02 µg/mL (≈ 0.0934 µM)

C[C@H]1[C@H](C)CC[C@]2(C)CC[C@]3(C)C(=CC(=O)[C@@H]4[C@@]5(C)Cc6nccnc6[C@](C)(C(=O)OCc6ccccc6)[C@@H]5CC[C@]43C)[C@H]12
IC50 [1]: 12200 nM
IC50 [2]: > 30000 nM
IC50 [3]: 2100 nM
IC50 [4]: 13700 nM

C[C@H](O)[C@@]1(C)CCC2[C@]3(C)CC=C4C(C)(C)c5nc(C(=O)NCCc6ccccc6)cnc5C[C@]4(C)[C@H]3CC[C@@]21C (some centres undefined)
IC50 at 48 h [23]: 26700 nM
IC50 [24]: 930 nM
Ratio IC50 [25]: 28.71

Cc1nc(C)c(C)nc1C [LIGUSTRAZINE]
IC50 [26]: 24.7 µg/mL (≈ 181 µM)
IC50 [27]: 54.7 µg/mL (≈ 402 µM)
IC50 [28]: 10.3 µg/mL (≈ 75.6 µM)

Cc1cnc(COC(=O)c2ccccc2)cn1
EC50 [22]: 0.021 µg/mL (≈ 0.092 µM)

O=C1c2cccc3c2c(cc2nccnc23)C(=O)N1CCNCCCNCCN1C(=O)c2cccc3c2c(cc2nccnc23)C1=O
IC50 [8]: 530 nM
IC50 [1]: 20 nM
IC50 [9]: 200 nM

O=[N+]([O-])c1cccc(-c2cnc3cccnc3n2)c1
IC50 [10]: 466 nM
IC50 [11]: 1890 nM

Cn1cc(CCN2CCN(c3cnc(C(=O)Nc4cc(-c5cccs5)ccc4[N+](=O)[O-])cn3)CC2)c2ccccc21
IC50 [29]: 1000 nM
IC50 [30]: 260 nM
IC50 [31]: 2470 nM

Brc1ccc(CSc2nnc(-c3cnccn3)s2)cc1
IC50 [32]: 1240 nM
IC50 [33]: 780 nM

Reference: ChEMBL document CHEMBL5625161, “Pharmacological activity and mechanism of pyrazines” (Eur J Med Chem, 2023)
